{"source": "patent US20220249415A1", "about": "“COMPOSITION OF AZELAIC ACID HAVING ADIPOSE TRIGLYCERIDE HYDROLYSIS EFFECT” (Korea University Research and Business Foundation, priority 2018, published 2022)", "key": {"[1]": {"tested_on": "3T3-L1 adipocytes in which the Olfr544 gene was knocked-down", "test": "Lipolysis (glycerol) in adipocytes in which Olfr544 gene was knocked-down", "format": "cell-based, mouse", "conditions": "Olfr544 shRNA transfected adipocytes treated with azelaic acid for 2 hours", "description": "After the Olfr544 gene was knocked-down in the mouse adipocytes, the adipocytes were treated with azelaic acid, and whether or not a triglyceride hydrolysis effect of azelaic acid was maintained was confirmed."}, "[2]": {"tested_on": "ob/ob mice", "test": "Anti-obesity effect, oral administration to genetically obesity-induced ob/ob mice", "format": "in vivo, mouse", "conditions": "50 mg/kg oral", "description": "After orally administering azelaic acid to an ob/ob mouse (Samtako, Seoul, Korea) corresponding to a genetically obesity-induced mouse at a concentration of 50 mg/kg, a degree of obesity thereof was compared with that of a control group to which azelaic acid was not administered. More specifically, an increase in body weight, a feed intake amount, body fat, blood indices, blood lipid indices, a weight of liver tissue, ALT and AST corresponding to hepatotoxicity indices, and energy metabolism were analyzed. Changes in body weight in azelaic acid administration group and a control group were observed once a week for an experiment period of 6 weeks. Body fats (total fat, subcutaneous fat, and abdominal fat) of mice in the azelaic acid administration group to which azelaic acid was orally administered for 6 weeks and a control group were measured through micro CT image analysis. The subcutaneous fat was quantified for the entire site of the mouse, and the abdominal fat was calculated by quantifying an amount of abdominal fat at the 15th to 20th lumbar spine sites of the mouse. In order to evaluate an effect on mouse lipid metabolism of azelaic acid in the administration group to which azelaic acid was orally administered for 6 weeks and the control group, concentrations of blood triglycerides, adiponectin, and cholesterol were measured. Weights of the liver tissue, ALT, and AST of the mice in the azelaic acid administration group to which azelaic acid was orally administered for 6 weeks and the control group were measured."}, "[3]": {"tested_on": "3T3-L1 adipocytes", "test": "Intracellular calcium assay (Fluo-4 Direct) in 3T3-L1 adipocytes", "format": "cell-based, mouse", "description": "Therefore, changes in concentrations of cAMP, IP-one (metabolite of IP3), and calcium, which are second messengers by azelaic acid corresponding to the Olfr544 ligand, in 3T3-L1 adipocytes were measured. Since IP3 has low stability to thereby be easily decomposed to IP-one, an amount of intracellular IP-One (metabolite of IP3) was quantified instead of IP3. The concentration of intracellular calcium was measured using a Fluo-4 Direct™ Calcium Assay Kit (Invitrogen, California, U.S.) containing a fluorescent dye for labeling calcium ions. The cultured 3T3-L1 adipocytes were obtained and subjected to centrifugation, and then only pellets were diluted in a Fluo-4 Direct™ calcium assay buffer solution contained in the kit at a concentration of 2.5×10^6 cells/mL. After the resultant was seeded in a 96-well plate and cultured at 37° C. under 5% CO2 conditions for 60 minutes, 50 μL of a 2×Fluo-4 Direct™ calcium reagent loading solution was seeded in the 96-well plate and cultured at 37° C. under 5% CO2 conditions for 30 minutes. Then, fluorescence was measured at excitation and emission wavelengths of 494 nm and 516 nm."}, "[4]": {"molecular_target": "T1, OR2S2 (Homo sapiens, UniProt Q9NQN1)", "T1 construct": "endogenous in cells; host or cells: HepG2", "T1 sequence (Q9NQN1 1-319)": "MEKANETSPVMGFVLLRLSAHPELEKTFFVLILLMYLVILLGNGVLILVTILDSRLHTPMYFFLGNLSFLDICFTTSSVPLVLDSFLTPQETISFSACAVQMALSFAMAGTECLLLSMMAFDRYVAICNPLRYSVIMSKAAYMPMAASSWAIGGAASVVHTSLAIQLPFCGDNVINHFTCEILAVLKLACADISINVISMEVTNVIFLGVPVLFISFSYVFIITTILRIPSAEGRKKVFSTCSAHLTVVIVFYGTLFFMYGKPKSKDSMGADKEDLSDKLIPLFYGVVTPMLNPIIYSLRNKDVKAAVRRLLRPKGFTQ", "test": "siRNA knock-down of OR2S2 in HepG2 cells, fatty acid oxidation-related gene expression", "format": "cell-based", "conditions": "HepG2 cells during knock-down of OR2S2", "description": "The gene expression of OR1E1, OR1K1, OR2K2, OR2S2, OR13C5, and OR51E2, corresponding to the top 6 receptors among 10 human olfactory receptors selected to be expressed in both adipose tissue and liver tissue while interacting with azelaic acid, was knocked down with siRNA in human-derived liver cell and adipocyte lines, namely HepG2 cells and hAMSC cells, respectively. Here, siRNAs that were used were OR1E2 siRNA (sc-93932), OR1K2 (sc-92810), OR2K2 (sc-92852), OR2S2 (sc-92505), OR13C5 (sc-92899), and OR51E2 (sc-76265), purchased from Santa Cruz Biotechnology Inc. (Dallas, Tx USA).\nAfter knock-down treatment, the cell lines were treated with azelaic acid, and triglyceride hydrolysis and fatty acid oxidation-related gene expression in HepG2 cells as a human-derived liver cell line and hAMSC cells as a human-derived adipocyte line were measured."}, "[5]": {"molecular_target": "T2, OR2K2 (Homo sapiens, UniProt Q8NGT1, E159A)", "T2 construct": "expressed in transfected cells; host or cells: Hana3A", "T2 sequence (Q8NGT1 1-316 E159A)": "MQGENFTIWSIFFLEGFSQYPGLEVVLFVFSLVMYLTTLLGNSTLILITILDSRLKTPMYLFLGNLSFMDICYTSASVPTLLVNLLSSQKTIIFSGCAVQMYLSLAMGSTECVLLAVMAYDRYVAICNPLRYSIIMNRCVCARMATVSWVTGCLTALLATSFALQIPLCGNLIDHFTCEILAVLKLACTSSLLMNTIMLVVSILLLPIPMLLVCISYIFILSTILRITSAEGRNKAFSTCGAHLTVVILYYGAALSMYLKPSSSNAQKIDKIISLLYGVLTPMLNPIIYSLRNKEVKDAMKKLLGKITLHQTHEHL", "test": "Luciferase assay of OR2K2 mutants transfected into Hana3A cells", "format": "cell-based", "conditions": "OR2K2 E159A mutant in Hana3A cells", "description": "In order to confirm the binding site of the olfactory receptor OR2K2 protein that binds to azelaic acid, among amino acids, Y120, which is a tyrosine (Y) residue, E159, which is a glutamate (E) residue, and D270, which is an aspartate (D) residue, were predicted through in-silico modeling, and the corresponding position of the predicted amino acid residue was subjected to site-directed mutagenesis to obtain a mutant. For negative controls, Y120A, E159A, and D270A mutants in which all three amino acid residues were replaced with alanine were used. For positive controls, Y120F, E159D, and D270E mutants, including Y120F replaced with phenylalanine (F) for Y120, E159D replaced with aspartate for E159, and D270E replaced with glutamate for D270, were used.\nThe cDNA clone including the sequence of each OR2K2 mutant for measuring the binding affinity of azelaic acid was transfected into Hana3A cells, and a luciferase assay was performed. […] This is deemed to be because azelaic acid binds to OR2K2 by reacting the E159 and D270 moieties of OR2K2 with both carboxyl groups of azelaic acid."}}}
{"smiles": "O=C(O)CCCCCCCC(=O)O", "note": "[azelaic acid, nonanedioic acid]", "values": [{"measurement": "concentration of glycerol", "setting": "[1]", "result": "no change"}, {"measurement": "concentration of blood cholesterol", "setting": "[2]; 6 weeks", "result": "significantly decreased"}, {"measurement": "concentration of blood triglyceride", "setting": "[2]; 6 weeks", "result": "significantly decreased"}, {"measurement": "weight of the liver tissue", "setting": "[2]; 6 weeks", "result": "decreased"}, {"measurement": "body weight", "setting": "[2]; 6 weeks, on and after the first week, vs control group", "result": "significantly decreased"}, {"measurement": "ALT (hepatotoxicity index)", "setting": "[2]; 6 weeks, vs control group", "result": "no large difference"}, {"measurement": "AST (hepatotoxicity index)", "setting": "[2]; 6 weeks, vs control group", "result": "no large difference"}, {"measurement": "abdominal fat (micro CT)", "setting": "[2]; 6 weeks, vs control group", "result": "significantly decreased"}, {"measurement": "subcutaneous fat (micro CT)", "setting": "[2]; 6 weeks, vs control group", "result": "significantly decreased"}, {"measurement": "total fat (micro CT)", "setting": "[2]; 6 weeks, vs control group", "result": "significantly decreased"}, {"measurement": "feed intake amount", "setting": "[2]; final week, vs control group", "result": "no significant difference"}, {"measurement": "concentration of intracellular calcium", "setting": "[3]", "result": "did not affect"}, {"measurement": "expression of fatty acid oxidation-related genes (PPARa, CTP1, Acox2) upon treatment with azelaic acid", "setting": "[4]", "result": "did not change"}, {"measurement": "activity of azelaic acid (luciferase)", "setting": "[5]", "result": "statistically significantly decreased"}]}
